This is an account of results in US20190142881A1, “BACTERIOPHAGE COMPOSITIONS AND USES THEREOF” (priority 2016, published 2019).

Converted amounts (≈) assume the structure as drawn. Like-named read-outs stand apart in the source and are kept apart here.

The subject of experiment [1] is P. aeruginosa isolated from the patient, resistant to phage OMKO1. In words: MIC by eTest strip, patient isolate after evolved resistance to phage OMKO1. In kind it is cell-based, Pseudomonas aeruginosa. How it is done: (§1) Phage OMKO1 was amplified on P. aeruginosa in liquid culture in conditions identical to the Serial passage assays. Following 12 hours of amplification, 100 μl of culture was plated on LB agar and incubated for 12 hours. Individual colony-forming units (CFUs) were then collected, and verified to be phage resistant by classic ‘spot tests’ (i.e., 10^7 PFU of phage OMKO1 was pipetted onto a lawn of each bacterial isolate to test whether the phage was capable of visibly clearing the lawn [indicating bacterial sensitivity to phage] versus incapable of clearing the lawn [indicating bacterial resistance to phage]).
(§2) Bacterial strains were grown overnight at 37° C. as described above. A 200 μL sample of the culture was then spread onto an LB agar plate, and allowed to dry for 10 minutes, followed by application of an eTestStrip (BioMerieux) for a test antibiotic. […] Each strain was tested in triplicate for each antibiotic.
(§3) P. aeruginosa isolated from the patient was subjected to Deep Sequencing (Next Generation Sequencing) on the Illumina HiSeq 2000 platform to confirm species identity and presence of genes known to be associated with efflux-pump mechanisms for resistance to antibiotics. Furthermore, a trade-off between phage OMKO1 sensitivity and antibiotic susceptibility was confirmed as per methods disclosed elsewhere herein (FIG. 5). Phage OMKO1 was sequenced also on the HiSeq 2000 platform and found to be in the PhiKZ-like virus genus.

Experiment [2] deals with P. aeruginosa isolated from the patient, susceptible to phage OMKO1. The experiment can be described thus: MIC by eTest strip, patient isolate before phage exposure. Format: cell-based, Pseudomonas aeruginosa. As to the method: as §2, §3
Experiment [3] deals with strain PA01 ΔoprM. The experiment can be described thus: Minimum inhibitory concentration (eTest strip) on knockout PA01 ΔoprM. Format: cell-based. Particulars: Pseudomonas aeruginosa. As to the method:
as §2
(§4) The effects of phage resistance on sensitivity to the four drugs was tested in replicated assays with PA01 and PA14, as well as with three environmental strains (PAN, 1607, 1845) and three clinical isolates (PAPS, PASk, PADFU). In these assays, the phage-OMKO1 resistant strain was either a knockout mutant (ΔoprM derived from PA01), or an independently derived spontaneous mutant of the associated parental strain.

Experiment [4] relates to strain ΔmexR (derived from PA01). The experiment can be described thus: Minimum inhibitory concentration (eTest strip) on control knockout ΔmexR. In kind it is cell-based. Particulars: Pseudomonas aeruginosa, average ± SD, phage-sensitive, over-expresses Mex systems. As to the method: as §2
As a control for transposon insertion, strain ΔmexR, which was also derived from PA01, was examined. mexR, the repressor of MexAB-OprM and MexXY-OprM operons should not negatively alter phage sensitivity.

Experiment [5] relates to environmental isolates (PAN, 1607, 1845). The experiment can be described thus: MIC trade-off assay, phage-resistant mutants of environmental isolates. Format: cell-based, Pseudomonas aeruginosa. Particulars: phage-resistant mutant versus parental strain. As to the method:
as §1, §2, §4

Experiment [6] deals with 72-hour-old P. aeruginosa biofilms. The experiment can be described thus: Biofilm elimination assays on prosthetic materials. Particulars: single agent (antibiotics at 2×MIC).
Experiment [7] has as its system environmental and clinical P. aeruginosa strains. The experiment can be described thus: MIC trade-off assay, phage-resistant mutants of environmental and clinical strains. In kind it is cell-based, Pseudomonas aeruginosa. Particulars: majority of outcomes showing statistical significance.
Where [8] appears, read: Dacron sections, 24 h treatment, regrowth OD600.
Where [9] appears, read: Pseudomonas aeruginosa, read-out: MIC.

Turning to gentamicin, the MIC in experiment [1] (eTest strip, after evolved resistance to phage OMKO1) was 0.833 mg/L; in experiment [2] it was 3.7 mg/L.
On to `CC[C@H]1OC(=O)[C@H](C)[C@@H](O[C@H]2C[C@@](C)(OC)[C@@H](O)[C@H](C)O2)[C@H](C)[C@@H](O[C@@H]2O[C@H](C)C[C@H](N(C)C)[C@H]2O)[C@](C)(O)C[C@@H](C)C(=O)[C@H](C)[C@@H](O)[C@]1(C)O` [EM, Erythromycin], for which the MIC in experiment [3] was 4.67 mg/L (≈ 6.36 µM); in experiment [4], 256 ± 0.577 mg/L (≈ 349 µM). The “change in antibiotic sensitivity on resistance to phage OMKO1” value in experiment [5] is “increased sensitivity”.
Take `CN(C)[C@@H]1C(O)=C(C(N)=O)C(=O)[C@@]2(O)C(O)=C3C(=O)c4c(O)cccc4[C@@](C)(O)[C@H]3C[C@@H]12` [TET, Tetracycline]: the MIC in experiment [3] is 2 mg/L (≈ 4.5 µM); in experiment [4] it was 256 mg/L (≈ 576 µM).
For `O=C(O)c1cn(C2CC2)c2cc(N3CCNCC3)c(F)cc2c1=O` [CIP, Ciprofloxacin], the MIC in experiment [3] was 0.016 mg/L (≈ 0.0483 µM); in experiment [4] it was 32 mg/L (≈ 96.6 µM); in experiment [1] (Pseudomonas aeruginosa) it was 0.014 mg/L (≈ 0.0423 µM); in experiment [2] (setting [9]), 1.17 mg/L (≈ 3.54 µM). In addition, the “elimination of 72-hour biofilms” value is “Neither ciprofloxacin nor ceftazidime at 2×MIC was sufficient to eliminate 72 hour biofilms” in experiment [6] (setting [8]), “unable to remove 72-hour biofilms” in experiment [6] (Gore-Tex sections), “neither antibiotic alone significantly removed 72-hour biofilms” in experiment [6] (felt pieces) and “not by antibiotics at 2×MIC” in experiment [6] (polypropylene suture).
As for `NC[C@H]1O[C@H](O[C@H]2[C@H](O)[C@@H](O[C@H]3O[C@H](CO)[C@@H](O)[C@H](N)[C@H]3O)[C@H](N)C[C@@H]2N)[C@H](N)C[C@@H]1O` [tobramycin], the MIC is 3.67 mg/L (≈ 7.84 µM) in experiment [1] (Pseudomonas aeruginosa) and 11.3 mg/L (≈ 24.2 µM) in experiment [2] (setting [9]).
`CC(C)(O/N=C(\C(=O)N[C@@H]1C(=O)N2C(C(=O)[O-])=C(C[n+]3ccccc3)CS[C@H]12)c1csc(N)n1)C(=O)O` [CAZ, Ceftazidime]: the MIC in experiment [3] was 0.21 ± 0.144 mg/L (≈ 0.384 µM); in experiment [4], 1.33 ± 0.035 mg/L (≈ 2.44 µM); in experiment [1] (Pseudomonas aeruginosa) it was 0.35 mg/L (≈ 0.64 µM); in experiment [2] (setting [9]), 1.67 mg/L (≈ 3.05 µM). In addition, the “elimination of 72-hour biofilms” value in experiment [6] (setting [8]) is recorded as “Neither ciprofloxacin nor ceftazidime at 2×MIC was sufficient to eliminate 72 hour biofilms”; in experiment [6] (Gore-Tex sections), “unable to remove 72-hour biofilms”; in experiment [6] (felt pieces), “neither antibiotic alone significantly removed 72-hour biofilms”; in experiment [6] (polypropylene suture) it was “not by antibiotics at 2×MIC”. Further, the “change in drug sensitivity on phage resistance” value in experiment [7] is recorded as “greater drug sensitivity”.
